Data as given in PubChem BioAssay AID306 (DTP/NCI, 2004).
Values joined by “and” are separate entries in the source; they are usually repeats but may differ in a detail not shown here. Equal entries are not always repeated. Toxic doses and inconclusive results are not listed.

System: BDF1 mice, L1210 Methyl-GAG-resistant leukemia, survival T/C
Test: NCI In Vivo Anticancer Drug Screen. Data for tumor model L1210 Leukemia resistant to Methyl-GAG; NSC 32946 (subcutaneous) in B6D2F1 (BDF1) mice
Conditions: endpoint: mean survival time, higher = longer survival
Experimental: The antitumor activity of compounds was measured in mice bearing transplantable tumors. Survival or tumor size were measured and the results are expressed as the measurement made in the treated group (T) divided by the measurement made in the vehicle treated control group (C). The tumor model used in this assay is L1210 Leukemia resistant to Methyl-GAG; NSC 32946 (subcutaneous) in B6D2F1 (BDF1) mice

[1] = dose: 3.1 mg/kg/injection, schedule: Q01DX Z (ip), vehicle: water
[2] = dose: 6.25 mg/kg/injection, schedule: Q01DX Z (ip), vehicle: carboxymethylcellulose (CMC)
[3] = dose: 6.25 mg/kg/injection, schedule: Q01DX Z (ip), vehicle: water
[4] = dose: 12.5 mg/kg/injection, schedule: Q01DX Z (ip), vehicle: carboxymethylcellulose (CMC)
[5] = dose: 12.5 mg/kg/injection, schedule: Q01DX Z (ip), vehicle: water
[6] = dose: 25.0 mg/kg/injection, schedule: Q01DX Z (ip), vehicle: carboxymethylcellulose (CMC)
[7] = dose: 25.0 mg/kg/injection, schedule: Q01DX Z (ip), vehicle: water
[8] = dose: 50.0 mg/kg/injection, schedule: Q01DX Z (ip), vehicle: carboxymethylcellulose (CMC)
[9] = dose: 50.0 mg/kg/injection, schedule: Q01DX Z (ip), vehicle: water
[10] = dose: 100.0 mg/kg/injection, schedule: Q01DX Z (ip), vehicle: carboxymethylcellulose (CMC)
[11] = dose: 1.25 mg/kg/injection, schedule: Q01DX Z (ip), vehicle: saline
[12] = dose: 62.5 mg/kg/injection, schedule: Q01DX Z (ip), vehicle: carboxymethylcellulose (CMC)
[13] = dose: 125.0 mg/kg/injection, schedule: Q01DX Z (ip), vehicle: carboxymethylcellulose (CMC)
[14] = dose: 250.0 mg/kg/injection, schedule: Q01DX Z (ip), vehicle: carboxymethylcellulose (CMC)
[15] = dose: 500.0 mg/kg/injection, schedule: Q01DX Z (ip), vehicle: carboxymethylcellulose (CMC)
[16] = dose: 1000.0 mg/kg/injection, schedule: Q01DX Z (ip), vehicle: carboxymethylcellulose (CMC)
[17] = dose: 16.0 mg/kg/injection, schedule: Q01DX Z (sc), vehicle: steriod suspending solution
[18] = dose: 32.0 mg/kg/injection, schedule: Q01DX Z (sc), vehicle: steriod suspending solution

SMILES: CN(C)c1ccc(/C=C/c2ccnc3ccccc23)cc1
- T/C [1]: 102 % of control
- T/C (dose: 3.12 mg/kg/injection, schedule: Q01DX Z (ip), vehicle: carboxymethylcellulose (CMC)): 100 % of control
- T/C [2]: 96 % of control
- T/C [3]: 97 % of control
- T/C [4]: 94 % of control
- T/C [5]: 97 % of control
- T/C [6]: 100 % of control
- T/C [7]: 100 % of control
- T/C [8]: 94 % of control
- T/C [9]: 91 % of control
- T/C [10]: 100 % of control

SMILES: O=c1cnn(C2OC(CO)C(O)C2O)c(=O)[nH]1 (centres undefined)
- T/C (dose: 8.0 mg/kg/injection, schedule: Q01DX Z (ip), vehicle: water): 112 % of control
- T/C (dose: 16.0 mg/kg/injection, schedule: Q01DX Z (ip), vehicle: water): 122 % of control
- T/C (dose: 1000.0 mg/kg/injection, schedule: Q01DX Z (ip), vehicle: water): 110 % of control

SMILES: NC(=O)c1ccc(N)nc1
- T/C (dose: 0.31 mg/kg/injection, schedule: Q01DX Z (ip), vehicle: saline): 106 % of control
- T/C (dose: 0.31 mg/kg/injection, schedule: Q01DX Z (ip), vehicle: water): 102 % of control
- T/C (dose: 0.63 mg/kg/injection, schedule: Q01DX Z (ip), vehicle: saline): 101 % of control
- T/C (dose: 0.63 mg/kg/injection, schedule: Q01DX Z (ip), vehicle: water): 115 % of control
- T/C [11]: 98 % of control

SMILES: CC(CCC(C)OS(C)(=O)=O)OS(C)(=O)=O (centres undefined)
- T/C (dose: 5.0 mg/kg/injection, schedule: Q01DX Z (ip), vehicle: carboxymethylcellulose (CMC)): 90 % of control
- T/C (dose: 10.0 mg/kg/injection, schedule: Q01DX Z (ip), vehicle: carboxymethylcellulose (CMC)): 87 % of control
- T/C (dose: 20.0 mg/kg/injection, schedule: Q01DX Z (ip), vehicle: carboxymethylcellulose (CMC)): 95 % of control

SMILES: CN(Cc1cnc2nc(N)nc(N)c2n1)c1ccc(C(=O)N[C@@H](CCC(=O)O)C(=O)O)cc1
- T/C (dose: 0.31 mg/kg/injection, schedule: Q01DX Z (ip), vehicle: other): 157 % of control and 164 % of control (2×)
- T/C (dose: 0.43 mg/kg/injection, schedule: Q01DX Z (ip), vehicle: other): 160 % of control
- T/C (dose: 0.62 mg/kg/injection, schedule: Q01DX Z (ip), vehicle: other): 235 % of control and 245 % of control and 246 % of control
- T/C (dose: 0.87 mg/kg/injection, schedule: Q01DX Z (ip), vehicle: other): 255 % of control
- T/C (dose: 1.25 mg/kg/injection, schedule: Q01DX Z (ip), vehicle: other): 262 % of control and 270 % of control and 276 % of control
- T/C (dose: 1.5 mg/kg/injection, schedule: Q01DX Z (ip), vehicle: other): 194 % of control
- T/C (dose: 1.75 mg/kg/injection, schedule: Q01DX Z (ip), vehicle: other): 301 % of control
- T/C (dose: 2.5 mg/kg/injection, schedule: Q01DX Z (ip), vehicle: other): 178 % of control
- T/C (dose: 3.0 mg/kg/injection, schedule: Q01DX Z (ip), vehicle: other): 234 % of control
- T/C (dose: 3.5 mg/kg/injection, schedule: Q01DX Z (ip), vehicle: other): 116 % of control
- T/C (dose: 5.0 mg/kg/injection, schedule: Q01DX Z (ip), vehicle: other): 95 % of control and 118 % of control

SMILES: CCN(CC)C(=S)S
- T/C (dose: 125.0 mg/kg/injection, schedule: Q01DX Z (ip), vehicle: other): 96 % of control
- T/C (dose: 250.0 mg/kg/injection, schedule: Q01DX Z (ip), vehicle: other): 92 % of control
- T/C (dose: 500.0 mg/kg/injection, schedule: Q01DX Z (ip), vehicle: other): 96 % of control
- T/C (dose: 1000.0 mg/kg/injection, schedule: Q01DX Z (ip), vehicle: other): 104 % of control and 114 % of control

SMILES: O=CCC(O)C(O)C(O)CO (centres undefined)
- T/C [12]: 98 % of control
- T/C [13]: 103 % of control
- T/C [14]: 101 % of control
- T/C [15]: 119 % of control
- T/C [16]: 108 % of control
- T/C (dose: 2000.0 mg/kg/injection, schedule: Q01DX Z (ip), vehicle: carboxymethylcellulose (CMC)): 90 % of control

SMILES: Nc1ncnc2[nH]ncc12
- T/C (dose: 0.8 mg/kg/injection, schedule: Q01DX Z (ip), vehicle: carboxymethylcellulose (CMC)): 102 % of control
- T/C (dose: 1.6 mg/kg/injection, schedule: Q01DX Z (ip), vehicle: carboxymethylcellulose (CMC)): 100 % of control
- T/C (dose: 3.1 mg/kg/injection, schedule: Q01DX Z (ip), vehicle: carboxymethylcellulose (CMC)): 104 % of control
- T/C [2]: 106 % of control
- T/C [4]: 102 % of control
- T/C [6]: 90 % of control
- T/C [8]: 93 % of control and 96 % of control

SMILES: CC[C@@H](c1ccc(O)cc1)[C@@H](CC)c1ccc(O)cc1
- T/C [17]: 96 % of control
- T/C [18]: 96 % of control
- T/C (dose: 62.5 mg/kg/injection, schedule: Q01DX Z (sc), vehicle: steriod suspending solution): 100 % of control
- T/C (dose: 125.0 mg/kg/injection, schedule: Q01DX Z (sc), vehicle: steriod suspending solution): 100 % of control
- T/C (dose: 250.0 mg/kg/injection, schedule: Q01DX Z (sc), vehicle: steriod suspending solution): 108 % of control
- T/C (dose: 500.0 mg/kg/injection, schedule: Q01DX Z (sc), vehicle: steriod suspending solution): 98 % of control and 101 % of control
- T/C (dose: 1000.0 mg/kg/injection, schedule: Q01DX Z (sc), vehicle: steriod suspending solution): 95 % of control

SMILES: OCC1OC(n2cnc3c(Cl)ncnc32)C(O)C1O (centres undefined)
- T/C [12]: 96 % of control
- T/C [13]: 94 % of control
- T/C [14]: 99 % of control
- T/C [15]: 88 % of control and 102 % of control
- T/C [16]: 91 % of control

SMILES: Cn1cnc([N+](=O)[O-])c1Sc1nc(N)nc2nc[nH]c12
- T/C (dose: 1.0 mg/kg/injection, schedule: Q01DX Z (ip), vehicle: carboxymethylcellulose (CMC)): 98 % of control
- T/C (dose: 2.0 mg/kg/injection, schedule: Q01DX Z (ip), vehicle: carboxymethylcellulose (CMC)): 106 % of control
- T/C (dose: 4.0 mg/kg/injection, schedule: Q01DX Z (ip), vehicle: carboxymethylcellulose (CMC)): 162 % of control
- T/C (dose: 8.0 mg/kg/injection, schedule: Q01DX Z (ip), vehicle: carboxymethylcellulose (CMC)): 88 % of control

SMILES: CC[C@H](c1ccc(O)cc1)[C@@H](CC)c1ccc(O)cc1
- T/C (dose: 4.0 mg/kg/injection, schedule: Q01DX Z (sc), vehicle: steriod suspending solution): 100 % of control
- T/C (dose: 8.0 mg/kg/injection, schedule: Q01DX Z (sc), vehicle: steriod suspending solution): 100 % of control
- T/C [17]: 95 % of control
- T/C [18]: 105 % of control

SMILES: CS(=O)(=O)OCCCl
- T/C [4]: 89 % of control
- T/C [6]: 96 % of control
- T/C [8]: 92 % of control
- T/C [10]: 113 % of control

SMILES: Cn1cc(NC(=O)c2cc(NC(=O)CN=C(N)N)cn2C)cc1C(=O)NCCC(=N)N
- T/C (dose: 6.3 mg/kg/injection, schedule: Q01DX Z (ip), vehicle: saline): 112 % of control
- T/C (dose: 12.5 mg/kg/injection, schedule: Q01DX Z (ip), vehicle: saline): 102 % of control
- T/C (dose: 25.0 mg/kg/injection, schedule: Q01DX Z (ip), vehicle: saline): 91 % of control

SMILES: N[C@@H](Cc1ccc(N(CCCl)CCCl)cc1)C(=O)O
- T/C [11]: 92 % of control
- T/C (dose: 2.5 mg/kg/injection, schedule: Q01DX Z (ip), vehicle: saline): 106 % of control
- T/C (dose: 5.0 mg/kg/injection, schedule: Q01DX Z (ip), vehicle: saline): 123 % of control
- T/C (dose: 10.0 mg/kg/injection, schedule: Q01DX Z (ip), vehicle: saline): 92 % of control

SMILES: CN(C)c1ccc(/C=C\c2ccnc3ccccc23)cc1
- T/C (dose: 0.4 mg/kg/injection, schedule: Q01DX Z (ip), vehicle: water): 97 % of control and 107 % of control
- T/C (dose: 0.8 mg/kg/injection, schedule: Q01DX Z (ip), vehicle: water): 89 % of control and 105 % of control
- T/C (dose: 1.6 mg/kg/injection, schedule: Q01DX Z (ip), vehicle: water): 104 % of control
- T/C [1]: 101 % of control
- T/C [3]: 90 % of control
- T/C [5]: 95 % of control
- T/C [7]: 104 % of control
- T/C [9]: 97 % of control and 107 % of control

SMILES: C[N+](C)(C)c1ncnc2nc[nH]c12
- T/C [4]: 101 % of control
- T/C [6]: 103 % of control
- T/C [8]: 101 % of control and 112 % of control
- T/C [10]: 94 % of control and 117 % of control
- T/C (dose: 200.0 mg/kg/injection, schedule: Q01DX Z (ip), vehicle: carboxymethylcellulose (CMC)): 102 % of control
